Common to all, as to format: biochemical
The target of one assay is CDK1/B (Homo sapiens, UniProt P06493). In words: Inhibition assay, CDK1/B. The method, then: (§1) The reaction was terminated by the addition of EDTA. The plates were analyzed using a Caliper LabChip 3000.
(§2) Additional inhibition assays were performed as described above.

The target in another assay is CDK2-CYCLINA (Homo sapiens, UniProt P24941). Nature of the assay: Microfluidic LabChip inhibition assay, CDK2-CYCLINA. The note with it: ATP 50 μM. The method, then: as §1, §2
In another assay the target is CDK9-CYCLINT1 (Homo sapiens, UniProt P50750). In words: Microfluidic LabChip inhibition assay, CDK9-CYCLINT1. The following applies: ATP 10 μM. The method, then:
as §1, §2

For another assay, the target named is CDK4-CYCLIND1 (Homo sapiens, UniProt P11802). Nature of the assay: Microfluidic LabChip inhibition assay, CDK4-CYCLIND1. The note with it: ATP 200 μM, second values in parentheses on the line below, not explained, read-out: CDK4 CyclinD1 IC50. The method, then:
as §1, §2

The next assay has as its target CDK7 CyclinH (Homo sapiens, UniProt P50613). Nature of the assay: Inhibition assay, CDK7 CyclinH. As for the experimental part: as §1, §2
Where [1] appears, read: Table 3a, read-out: CDK1/B IC50.
Where [2] appears, read: Table 3b, read-out: CDK1/B IC50.

Where two headings read alike, the source gives them in different places.

CDK4-CYCLIND1, sequence (P11802 whole entry): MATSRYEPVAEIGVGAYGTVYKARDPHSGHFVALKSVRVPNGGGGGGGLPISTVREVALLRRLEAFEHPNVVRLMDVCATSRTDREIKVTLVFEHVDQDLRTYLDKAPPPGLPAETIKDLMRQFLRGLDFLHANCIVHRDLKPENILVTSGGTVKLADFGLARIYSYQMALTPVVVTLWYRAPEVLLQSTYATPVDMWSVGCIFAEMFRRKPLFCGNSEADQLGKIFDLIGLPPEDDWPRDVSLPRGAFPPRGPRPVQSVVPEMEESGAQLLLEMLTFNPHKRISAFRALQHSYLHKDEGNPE
CDK4-CYCLIND1, sequence (P24385 whole entry partner): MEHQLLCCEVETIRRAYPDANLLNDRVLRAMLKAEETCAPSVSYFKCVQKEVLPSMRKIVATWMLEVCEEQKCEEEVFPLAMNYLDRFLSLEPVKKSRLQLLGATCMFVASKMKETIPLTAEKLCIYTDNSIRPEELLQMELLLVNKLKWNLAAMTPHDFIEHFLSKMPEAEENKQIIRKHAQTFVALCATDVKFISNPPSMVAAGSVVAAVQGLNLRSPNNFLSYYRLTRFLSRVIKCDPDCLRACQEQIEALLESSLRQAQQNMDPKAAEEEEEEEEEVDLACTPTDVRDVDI
CDK1/B, sequence (P06493 whole entry): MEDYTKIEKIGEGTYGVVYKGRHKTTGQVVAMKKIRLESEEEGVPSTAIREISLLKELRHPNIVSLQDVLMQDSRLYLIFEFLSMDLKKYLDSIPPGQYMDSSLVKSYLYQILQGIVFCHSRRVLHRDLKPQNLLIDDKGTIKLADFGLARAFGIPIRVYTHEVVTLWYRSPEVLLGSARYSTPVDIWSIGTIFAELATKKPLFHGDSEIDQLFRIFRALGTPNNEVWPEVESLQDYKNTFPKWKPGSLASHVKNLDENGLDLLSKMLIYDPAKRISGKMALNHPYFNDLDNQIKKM
CDK1/B, sequence (P14635 whole entry partner): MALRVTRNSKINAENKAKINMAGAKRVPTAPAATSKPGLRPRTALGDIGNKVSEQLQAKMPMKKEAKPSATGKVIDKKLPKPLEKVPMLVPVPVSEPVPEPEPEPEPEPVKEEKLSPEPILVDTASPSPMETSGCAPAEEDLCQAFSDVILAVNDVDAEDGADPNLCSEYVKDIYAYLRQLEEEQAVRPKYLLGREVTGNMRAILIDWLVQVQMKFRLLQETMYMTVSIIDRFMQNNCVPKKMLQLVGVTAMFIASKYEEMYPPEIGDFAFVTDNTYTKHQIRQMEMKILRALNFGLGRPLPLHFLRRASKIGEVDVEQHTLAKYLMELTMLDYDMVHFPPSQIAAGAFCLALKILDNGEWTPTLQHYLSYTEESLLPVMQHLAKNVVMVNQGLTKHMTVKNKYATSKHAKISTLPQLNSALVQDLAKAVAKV
CDK9-CYCLINT1, sequence (P50750 whole entry): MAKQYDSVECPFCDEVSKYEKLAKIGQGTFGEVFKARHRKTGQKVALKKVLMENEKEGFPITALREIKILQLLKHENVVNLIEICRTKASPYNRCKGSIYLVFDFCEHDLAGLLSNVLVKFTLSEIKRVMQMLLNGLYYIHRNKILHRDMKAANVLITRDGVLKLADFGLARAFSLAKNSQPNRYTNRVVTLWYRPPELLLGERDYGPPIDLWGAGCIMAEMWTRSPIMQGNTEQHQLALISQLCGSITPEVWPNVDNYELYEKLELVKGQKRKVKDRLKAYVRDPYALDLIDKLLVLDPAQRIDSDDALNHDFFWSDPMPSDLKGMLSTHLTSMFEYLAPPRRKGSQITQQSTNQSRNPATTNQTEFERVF
CDK9-CYCLINT1, sequence (O60563 whole entry partner): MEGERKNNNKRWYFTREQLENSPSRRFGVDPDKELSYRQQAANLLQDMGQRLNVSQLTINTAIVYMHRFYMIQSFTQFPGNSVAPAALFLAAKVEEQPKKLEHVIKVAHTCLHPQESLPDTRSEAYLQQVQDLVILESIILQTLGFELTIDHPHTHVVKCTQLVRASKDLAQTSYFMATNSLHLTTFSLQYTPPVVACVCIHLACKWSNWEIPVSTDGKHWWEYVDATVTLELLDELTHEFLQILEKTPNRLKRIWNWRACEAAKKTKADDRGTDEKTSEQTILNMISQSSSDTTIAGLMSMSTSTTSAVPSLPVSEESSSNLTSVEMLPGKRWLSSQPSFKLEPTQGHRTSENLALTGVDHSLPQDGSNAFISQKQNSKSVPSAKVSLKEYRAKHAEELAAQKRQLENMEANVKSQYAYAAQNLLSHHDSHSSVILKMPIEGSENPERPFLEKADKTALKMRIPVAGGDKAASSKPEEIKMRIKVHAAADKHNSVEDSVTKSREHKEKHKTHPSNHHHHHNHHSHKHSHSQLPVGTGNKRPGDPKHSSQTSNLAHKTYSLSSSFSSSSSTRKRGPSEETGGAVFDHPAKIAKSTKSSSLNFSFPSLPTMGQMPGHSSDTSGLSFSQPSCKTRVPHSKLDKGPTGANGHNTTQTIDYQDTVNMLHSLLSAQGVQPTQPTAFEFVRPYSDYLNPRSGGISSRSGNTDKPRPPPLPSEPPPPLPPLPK
CDK7 CyclinH, sequence (P50613 whole entry): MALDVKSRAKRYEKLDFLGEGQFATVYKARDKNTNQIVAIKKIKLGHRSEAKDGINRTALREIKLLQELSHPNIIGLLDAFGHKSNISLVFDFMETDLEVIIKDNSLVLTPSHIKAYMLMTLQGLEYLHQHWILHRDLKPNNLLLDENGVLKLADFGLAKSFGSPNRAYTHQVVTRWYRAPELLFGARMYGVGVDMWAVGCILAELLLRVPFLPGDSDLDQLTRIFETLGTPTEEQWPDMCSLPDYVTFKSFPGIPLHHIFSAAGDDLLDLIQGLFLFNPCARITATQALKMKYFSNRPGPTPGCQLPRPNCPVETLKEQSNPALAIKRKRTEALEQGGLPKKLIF
CDK7 CyclinH, sequence (P51946 whole entry partner): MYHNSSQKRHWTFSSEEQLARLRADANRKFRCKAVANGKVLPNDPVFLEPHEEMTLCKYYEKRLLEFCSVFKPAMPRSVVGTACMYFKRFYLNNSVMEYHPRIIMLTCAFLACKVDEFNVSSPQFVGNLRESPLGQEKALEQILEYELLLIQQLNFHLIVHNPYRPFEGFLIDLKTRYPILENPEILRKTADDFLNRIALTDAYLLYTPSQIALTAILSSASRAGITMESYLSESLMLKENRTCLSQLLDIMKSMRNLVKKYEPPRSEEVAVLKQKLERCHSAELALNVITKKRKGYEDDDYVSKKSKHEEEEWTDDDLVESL
CDK7 CyclinH, sequence (P51948 whole entry partner): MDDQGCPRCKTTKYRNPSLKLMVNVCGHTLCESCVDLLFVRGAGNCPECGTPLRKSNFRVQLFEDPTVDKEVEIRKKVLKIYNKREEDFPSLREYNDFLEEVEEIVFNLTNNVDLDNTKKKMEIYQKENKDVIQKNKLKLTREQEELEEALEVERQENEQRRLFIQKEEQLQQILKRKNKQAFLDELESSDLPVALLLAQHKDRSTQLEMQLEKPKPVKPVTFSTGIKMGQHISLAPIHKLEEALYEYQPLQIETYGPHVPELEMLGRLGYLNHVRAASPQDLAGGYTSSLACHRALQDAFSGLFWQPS

On to `CC(=O)c1c(C)c2cnc(Nc3ccc(N4CCN(C)CC4)cc3)nc2n(C23CC(C2)C3)c1=O` [Compound B96, 6-acetyl-8-(bicyclo[1.1.1]pentan-1-yl)-5-methyl-2-((4-(4-methylpiperazin-1-yl)phenyl)amino)pyrido[2,3-d]pyrimidin-7(8H)-one], for which the IC50 at CDK1/B (setting [1]) amounted to 4.04 µM; against CDK2-CYCLINA (Table 3a), 2.79 µM; against CDK2-CYCLINA (Table 3b) it was 2.79 µM; on CDK9-CYCLINT1 (Table 3a), 0.0976 µM; at CDK9-CYCLINT1 (Table 3b), 0.0976 µM; at CDK4-CYCLIND1 (Table 3a), 0.00754 µM. The values for the IC50 on CDK4-CYCLIND1 (Table 3b), at CDK7 CyclinH (Table 3a) and at CDK7 CyclinH (Table 3b) were 0.00754 µM, 2.84 µM and 2.84 µM, respectively.

In the case of `Cc1c(C(=O)N(C)C)c(=O)n(C23CC(C2)C3)c2nc(NC3CC4CCC3C4)ncc12` (centres unmarked) [Compound B157, 8-(bicyclo[1.1.1]pentan-1-yl)-2-(bicyclo[2.2.1]heptan-2-ylamino)-N,N,5-trimethyl-7-oxo-7,8-dihydropyrido[2,3-d]pyrimidine-6-carboxamide], the IC50 on CDK1/B (setting [1]) is above 10 µM; at CDK1/B (setting [2]) it was above 10 µM; against CDK2-CYCLINA (Table 3a), 5.25 µM; on CDK2-CYCLINA (Table 3b) it was 5.25 µM; against CDK9-CYCLINT1 (Table 3a), 2.45 µM; against CDK9-CYCLINT1 (Table 3b) it was 2.45 µM. Besides, the IC50 was 1.25 µM on CDK4-CYCLIND1 (Table 3a), 1.25 µM at CDK4-CYCLIND1 (Table 3b), above 10 µM against CDK7 CyclinH (Table 3a) and above 10 µM against CDK7 CyclinH (Table 3b).

On to `Cc1c(C(=O)N(C)C)c(=O)n(C23CC(C2)C3)c2nc(NC3CC4CCC3C4)ncc12` (centres unmarked) [Compound B158, 8-(bicyclo[1.1.1]pentan-1-yl)-2-(bicyclo[2.2.1]heptan-2-ylamino)-N,N,5-trimethyl-7-oxo-7,8-dihydropyrido[2,3-d]pyrimidine-6-carboxamide], for which the IC50 on CDK1/B (setting [1]) was above 10 µM; on CDK2-CYCLINA (Table 3a), above 10 µM; at CDK2-CYCLINA (Table 3b), above 10 µM; against CDK9-CYCLINT1 (Table 3a) it was 2.75 µM; on CDK9-CYCLINT1 (Table 3b), 2.75 µM; on CDK4-CYCLIND1 (Table 3a), 1.59 µM. Also, the IC50 at CDK4-CYCLIND1 (Table 3b) is 1.59 µM; at CDK7 CyclinH (Table 3a), above 10 µM.

`CC(=O)c1c(C)c2cnc(Nc3ccc(N4CCN(C)CC4)cn3)nc2n(C23CC(C2)C3)c1=O` [Compound B93, 6-acetyl-8-(bicyclo[1.1.1]pentan-1-yl)-5-methyl-2-((5-(4-methylpiperazin-1-yl)pyridin-2-yl)amino)pyrido[2,3-d]pyrimidin-7(8H)-one]: the IC50 on CDK1/B (setting [1]) was above 10 µM; at CDK1/B (setting [2]) it was above 10 µM; at CDK2-CYCLINA (Table 3a), above 10 µM; at CDK2-CYCLINA (Table 3b) it was above 10 µM; on CDK9-CYCLINT1 (Table 3a), 1.23 µM; at CDK9-CYCLINT1 (Table 3b), 1.23 µM. Moreover, the IC50 is 0.0483 µM on CDK4-CYCLIND1 (Table 3a), 0.0483 µM on CDK4-CYCLIND1 (Table 3b), above 10 µM against CDK7 CyclinH (Table 3a) and above 10 µM at CDK7 CyclinH (Table 3b).

Take `Cc1c(C(=O)N(C)C)c(=O)n(C2CCCC2)c2nc(Nc3ccc(N4CC(C)NC(C)C4)cc3)ncc12` (centres unmarked) [Compound B151, 8-cyclopentyl-2-((4-(3,5-dimethylpiperazin-1-yl)phenyl)amino)-N,N,5-trimethyl-7-oxo-7,8-dihydropyrido[2,3-d]pyrimidine-6-carboxamide]: the IC50 at CDK1/B (setting [1]) is above 10 µM; on CDK1/B (setting [2]) it was above 10 µM; at CDK2-CYCLINA (Table 3a) it was above 10 µM; at CDK2-CYCLINA (Table 3b) it was above 10 µM; against CDK9-CYCLINT1 (Table 3a), 5.14 µM; against CDK9-CYCLINT1 (Table 3b), 5.14 µM. Besides, the IC50 on CDK4-CYCLIND1 (Table 3a) was 0.00893 µM; on CDK4-CYCLIND1 (Table 3b), 0.00893 µM; against CDK7 CyclinH (Table 3a) it was above 10 µM; at CDK7 CyclinH (Table 3b), above 10 µM.

Turning to `CC(=O)c1c(C)c2cnc(Nc3ccc(OCCN4CCCC4)cn3)nc2n(C2CCCC2)c1=O` [Compound B66, 6-acetyl-8-cyclopentyl-5-methyl-2-((5-(2-(pyrrolidin-1-yl)ethoxy)pyridin-2-yl)amino)pyrido[2,3-d]pyrimidin-7(8H)-one], the IC50 is above 10 µM on CDK1/B (setting [1]); above 10 µM at CDK1/B (setting [2]); above 10 µM against CDK2-CYCLINA (Table 3a); above 10 µM against CDK2-CYCLINA (Table 3b); 0.422 µM on CDK9-CYCLINT1 (Table 3a); 0.422 µM against CDK9-CYCLINT1 (Table 3b). Moreover, the IC50 on CDK4-CYCLIND1 (Table 3a) is 0.0152 µM; on CDK4-CYCLIND1 (Table 3b), 0.0152 µM; against CDK7 CyclinH (Table 3a) it was above 10 µM; on CDK7 CyclinH (Table 3b) it was above 10 µM.

For the compound `CS(=O)(=O)N1CCC(Nc2ncc3cc(C#N)c(=O)n(C4CCCC4)c3n2)CC1` [Compound B152, 8-cyclopentyl-2-((1-(methylsulfonyl)piperidin-4-yl)amino)-7-oxo-7,8-dihydropyrido[2,3-d]pyrimidine-6-carbonitrile], the IC50 at CDK1/B was determined as 0.0479 µM; against CDK2-CYCLINA (Table 3a) it was 0.0153 µM; at CDK2-CYCLINA (Table 3b) it was 0.0153 µM; against CDK9-CYCLINT1 (Table 3a), 0.105 µM; at CDK9-CYCLINT1 (Table 3b), 0.105 µM; on CDK4-CYCLIND1 (Table 3a), 0.00329 µM. Further, the IC50 was 0.00329 µM on CDK4-CYCLIND1 (Table 3b), 0.745 µM on CDK7 CyclinH (Table 3a) and 0.745 µM against CDK7 CyclinH (Table 3b).

Regarding `CN(C)C(=O)c1cc2cnc(NC3CCN(S(C)(=O)=O)CC3)nc2n(C2CCCC2)c1=O` [Compound B153, 8-cyclopentyl-N,N-dimethyl-2-((1-(methylsulfonyl)piperidin-4-yl)amino)-7-oxo-7,8-dihydropyrido[2,3-d]pyrimidine-6-carboxamide], the IC50 at CDK1/B (setting [1]) worked out at 0.763 µM; against CDK2-CYCLINA (Table 3a) it was 0.285 µM; against CDK2-CYCLINA (Table 3b), 0.285 µM; at CDK9-CYCLINT1 (Table 3a) it was 4.58 µM; against CDK9-CYCLINT1 (Table 3b), 4.58 µM; on CDK4-CYCLIND1 (Table 3a), 0.0213 µM. For the same compound, the IC50 at CDK4-CYCLIND1 (Table 3b) is 0.0213 µM; against CDK7 CyclinH (Table 3a), above 10 µM; against CDK7 CyclinH (Table 3b), above 10 µM.

For `CS(=O)(=O)N1CCC(Nc2ncc3cc(C#N)c(=O)n(C45CC(C4)C5)c3n2)CC1` [Compound B113, 8-(bicyclo[1.1.1]pentan-1-yl)-2-((1-(methylsulfonyl)piperidin-4-yl)amino)-7-oxo-7,8-dihydropyrido[2,3-d]pyrimidine-6-carbonitrile], the IC50 on CDK1/B (setting [1]), on CDK1/B (setting [2]), against CDK2-CYCLINA (Table 3a), against CDK2-CYCLINA (Table 3b), at CDK9-CYCLINT1 (Table 3a) and at CDK9-CYCLINT1 (Table 3b) was above 10 µM each time. For the same compound, the IC50 on CDK4-CYCLIND1 (Table 3a), on CDK4-CYCLIND1 (Table 3b), against CDK7 CyclinH (Table 3a) and at CDK7 CyclinH (Table 3b) was above 10 µM throughout.

Take `CN(C)CCOc1ccc(Nc2ncc3cc(C#N)c(=O)n(C45CC(C4)C5)c3n2)nc1` [Compound B149, 8-(bicyclo[1.1.1]pentan-1-yl)-2-((5-(2-(dimethylamino)ethoxy)pyridin-2-yl)amino)-7-oxo-7,8-dihydropyrido[2,3-d]pyrimidine-6-carbonitrile]: the IC50 on CDK1/B (setting [1]) is above 10 µM; at CDK1/B (setting [2]), above 10 µM; at CDK2-CYCLINA (Table 3a) it was above 10 µM; against CDK2-CYCLINA (Table 3b), above 10 µM; on CDK9-CYCLINT1 (Table 3a) it was 0.733 µM; against CDK9-CYCLINT1 (Table 3b), 0.733 µM. Besides, the IC50 was 0.505 µM at CDK4-CYCLIND1 (Table 3a), 0.505 µM on CDK4-CYCLIND1 (Table 3b), above 10 µM at CDK7 CyclinH (Table 3a) and above 10 µM at CDK7 CyclinH (Table 3b).
